According to ChEMBL document CHEMBL4346715, “Antibacterial activity study of 1,2,4-triazole derivatives” (Eur J Med Chem, 2019):
Converted amounts (≈) assume the structure as drawn.

Assays:
[1] = system: Bacillus subtilis; assay: Antibacterial activity against Bacillus subtilis; assay type: functional
[2] = system: Clostridium tetani; assay: Antibacterial activity against Clostridium tetani; assay type: functional
[3] = system: Escherichia coli; assay: Antibacterial activity against Escherichia coli; assay type: functional
[4] = system: Staphylococcus aureus; assay: Antibacterial activity against Staphylococcus aureus; assay type: functional
[5] = system: Streptococcus pneumoniae; assay: Antibacterial activity against Streptococcus pneumoniae; assay type: functional
[6] = system: Escherichia coli; assay: Antibacterial activity against Escherichia coli incubated for 18 hrs post 30 mins pre-diffusion by disk diffusion method; assay type: functional
[7] = system: Staphylococcus aureus; assay: Antibacterial activity against Staphylococcus aureus incubated for 18 hrs post 30 mins pre-diffusion by disk diffusion method; assay type: functional
[8] = system: Aspergillus niger; assay: Antifungal activity against Aspergillus niger; assay type: functional
[9] = system: Pseudomonas aeruginosa; assay: Antibacterial activity against Pseudomonas aeruginosa; assay type: functional
[10] = system: Candida albicans; assay: Antifungal activity against Candida albicans; assay type: functional
[11] = system: Staphylococcus aureus; assay: Antibacterial activity against Staphylococcus aureus ATCC 49444 after 24 hrs by broth microdilution method; assay type: functional; conditions: ATCC 49444, 24 h
[12] = system: Salmonella typhimurium; assay: Antibacterial activity against Salmonella typhimurium ATCC 14028 after 24 hrs by broth microdilution method; assay type: functional, Salmonella enterica subsp. enterica serovar Typhimurium; conditions: Salmonella enterica, ATCC 14028, 24 h
[13] = system: Escherichia coli; assay: Antibacterial activity against Escherichia coli after 24 hrs by broth microdilution method; assay type: functional
[14] = system: Listeria monocytogenes; assay: Antibacterial activity against Listeria monocytogenes ATCC 35152 after 24 hrs by broth microdilution method; assay type: functional; conditions: ATCC 35152, 24 h
[15] = system: Pseudomonas aeruginosa; assay: Antibacterial activity against Pseudomonas aeruginosa ATCC 27853 after 24 hrs by broth microdilution method; assay type: functional; conditions: ATCC 27853, 24 h

Compound	MIC [1] [µg/mL]	MIC [3] [µg/mL]	MIC [4] [µg/mL]	MIC [6] [µg/mL]	MIC [7] [µg/mL]	further results
Cc1nn(-c2ccccc2)c(-n2cncn2)c1-c1cc(-c2ccc(O)cc2)nc2nc3ccccc3n12	62.5 to 250 (≈ 129 to 516 µM)	62.5 to 250 (≈ 129 to 516 µM)	62.5 to 250 (≈ 129 to 516 µM)	–	–	MIC [2]: 62.5 to 250 µg/mL (≈ 129 to 516 µM); MIC [5]: 62.5 to 250 µg/mL (≈ 129 to 516 µM)
FC(F)(F)c1cccc(-c2nnc(Sc3cc(Cl)nc(Sc4ccccc4)n3)[nH]2)c1	–	–	–	1.6 to 250 (≈ 3.43 to 537 µM)	1.6 to 250 (≈ 3.43 to 537 µM)	–
O=[N+]([O-])c1ccc(/C=N/n2c(S)nnc2-c2ccncc2)cc1	10.2 to 162 (≈ 31.3 to 498 µM)	10.2 to 162 (≈ 31.3 to 498 µM)	10.2 to 162 (≈ 31.3 to 498 µM)	–	–	MIC [8]: 10.2 to 162 µg/mL (≈ 31.3 to 498 µM); MIC [9]: 10.2 to 162 µg/mL (≈ 31.3 to 498 µM); MIC [10]: 10.2 to 162 µg/mL (≈ 31.3 to 498 µM)
C=CC/C=N/n1c(S)nnc1-c1ccncc1	10.2 to 162 (≈ 41.6 to 662 µM)	10.2 to 162 (≈ 41.6 to 662 µM)	10.2 to 162 (≈ 41.6 to 662 µM)	–	–	MIC [8]: 10.2 to 162 µg/mL (≈ 41.6 to 662 µM); MIC [9]: 10.2 to 162 µg/mL (≈ 41.6 to 662 µM); MIC [10]: 10.2 to 162 µg/mL (≈ 41.6 to 662 µM)
C/C=N/n1c(S)nnc1-c1ccncc1	10.2 to 162 (≈ 46.5 to 741 µM)	10.2 to 162 (≈ 46.5 to 741 µM)	10.2 to 162 (≈ 46.5 to 741 µM)	–	–	MIC [8]: 10.2 to 162 µg/mL (≈ 46.5 to 741 µM); MIC [9]: 10.2 to 162 µg/mL (≈ 46.5 to 741 µM); MIC [10]: 10.2 to 162 µg/mL (≈ 46.5 to 741 µM)
OCCCCSc1nc(Cl)cc(Sc2nnc(-c3cc(C(F)(F)F)cc(C(F)(F)F)c3)[nH]2)n1	–	–	–	1.6 to 250 (≈ 3.02 to 472 µM)	1.6 to 250 (≈ 3.02 to 472 µM)	–
FC(F)(F)c1cc(-c2nnc(Sc3cc(Cl)ncn3)[nH]2)cc(C(F)(F)F)c1	–	–	–	1.6 to 250 (≈ 3.76 to 587 µM)	1.6 to 250 (≈ 3.76 to 587 µM)	–
CSc1nccc(Sc2nnc(-c3cc(C(F)(F)F)cc(C(F)(F)F)c3)[nH]2)n1	–	–	–	1.6 to 250 (≈ 3.66 to 572 µM)	1.6 to 250 (≈ 3.66 to 572 µM)	–
Cc1nc(-c2ccccc2)sc1-c1nnc(S)n1/N=C/c1cccc(O)c1	–	–	–	–	–	MIC [11]: 1.95 to 62.5 µg/mL (≈ 4.96 to 159 µM); MIC [12]: 1.95 to 62.5 µg/mL (≈ 4.96 to 159 µM); MIC [13]: 1.95 to 62.5 µg/mL (≈ 4.96 to 159 µM); MIC [14]: 1.95 to 62.5 µg/mL (≈ 4.96 to 159 µM); MIC [15]: 1.95 to 62.5 µg/mL (≈ 4.96 to 159 µM)
FC(F)(F)c1cc(-c2nnc(Sc3cc(Cl)nc(Oc4ccccc4)n3)[nH]2)cc(C(F)(F)F)c1	–	–	–	1.6 to 250 (≈ 3.09 to 483 µM)	1.6 to 250 (≈ 3.09 to 483 µM)	–
CSc1nc(Cl)cc(Sc2nnc(-c3cc(F)cc(F)c3)[nH]2)n1	–	–	–	1.6 to 250 (≈ 4.3 to 672 µM)	1.6 to 250 (≈ 4.3 to 672 µM)	–
CC/C=N/n1c(S)nnc1-c1ccncc1	10.2 to 162 (≈ 43.7 to 697 µM)	10.2 to 162 (≈ 43.7 to 697 µM)	10.2 to 162 (≈ 43.7 to 697 µM)	–	–	MIC [8]: 10.2 to 162 µg/mL (≈ 43.7 to 697 µM); MIC [9]: 10.2 to 162 µg/mL (≈ 43.7 to 697 µM); MIC [10]: 10.2 to 162 µg/mL (≈ 43.7 to 697 µM)
Cc1nn(-c2ccccc2)c(-n2cncn2)c1-c1cc(-c2ccc(-c3cccs3)cc2)nc2nc3ccccc3n12	62.5 to 250 (≈ 114 to 454 µM)	62.5 to 250 (≈ 114 to 454 µM)	62.5 to 250 (≈ 114 to 454 µM)	–	–	MIC [2]: 62.5 to 250 µg/mL (≈ 114 to 454 µM); MIC [5]: 62.5 to 250 µg/mL (≈ 114 to 454 µM)
Cc1ccc(/C=N/n2c(S)nnc2-c2ccncc2)cc1	10.2 to 162 (≈ 34.5 to 550 µM)	10.2 to 162 (≈ 34.5 to 550 µM)	10.2 to 162 (≈ 34.5 to 550 µM)	–	–	MIC [8]: 10.2 to 162 µg/mL (≈ 34.5 to 550 µM); MIC [9]: 10.2 to 162 µg/mL (≈ 34.5 to 550 µM); MIC [10]: 10.2 to 162 µg/mL (≈ 34.5 to 550 µM)
Sc1nnc(-c2ccncc2)n1/N=C/c1ccc(Cl)cc1	10.2 to 162 (≈ 32.3 to 515 µM)	10.2 to 162 (≈ 32.3 to 515 µM)	10.2 to 162 (≈ 32.3 to 515 µM)	–	–	MIC [8]: 10.2 to 162 µg/mL (≈ 32.3 to 515 µM); MIC [9]: 10.2 to 162 µg/mL (≈ 32.3 to 515 µM); MIC [10]: 10.2 to 162 µg/mL (≈ 32.3 to 515 µM)
Cc1nc(-c2ccccc2)sc1-c1nnc(S)n1/N=C/c1ccccc1O	–	–	–	–	–	MIC [11]: 1.95 to 62.5 µg/mL (≈ 4.96 to 159 µM); MIC [12]: 1.95 to 62.5 µg/mL (≈ 4.96 to 159 µM); MIC [13]: 1.95 to 62.5 µg/mL (≈ 4.96 to 159 µM); MIC [14]: 1.95 to 62.5 µg/mL (≈ 4.96 to 159 µM); MIC [15]: 1.95 to 62.5 µg/mL (≈ 4.96 to 159 µM)
CCCCCSc1nc(Cl)cc(Sc2nnc(-c3cc(C(F)(F)F)cc(C(F)(F)F)c3)[nH]2)n1	–	–	–	1.6 to 250 (≈ 3.03 to 474 µM)	1.6 to 250 (≈ 3.03 to 474 µM)	–
Cc1nc(-c2ccccc2)sc1-c1nnc(S)n1/N=C/c1c(Cl)cccc1Cl	–	–	–	–	–	MIC [11]: 1.95 to 62.5 µg/mL (≈ 4.37 to 140 µM); MIC [12]: 1.95 to 62.5 µg/mL (≈ 4.37 to 140 µM); MIC [13]: 1.95 to 62.5 µg/mL (≈ 4.37 to 140 µM); MIC [14]: 1.95 to 62.5 µg/mL (≈ 4.37 to 140 µM); MIC [15]: 1.95 to 62.5 µg/mL (≈ 4.37 to 140 µM)
Cc1nc(-c2ccccc2)sc1-c1nnc(S)n1/N=C/c1ccc(Cl)cc1Cl	–	–	–	–	–	MIC [11]: 1.95 to 62.5 µg/mL (≈ 4.37 to 140 µM); MIC [12]: 1.95 to 62.5 µg/mL (≈ 4.37 to 140 µM); MIC [13]: 1.95 to 62.5 µg/mL (≈ 4.37 to 140 µM); MIC [14]: 1.95 to 62.5 µg/mL (≈ 4.37 to 140 µM); MIC [15]: 1.95 to 62.5 µg/mL (≈ 4.37 to 140 µM)
Cc1nn(-c2ccccc2)c(-n2cncn2)c1-c1cc(-c2ccccc2)nc2nc3ccccc3n12	62.5 to 250 (≈ 133 to 534 µM)	62.5 to 250 (≈ 133 to 534 µM)	62.5 to 250 (≈ 133 to 534 µM)	–	–	MIC [2]: 62.5 to 250 µg/mL (≈ 133 to 534 µM); MIC [5]: 62.5 to 250 µg/mL (≈ 133 to 534 µM)
CSc1nccc(Sc2nnc(-c3cc(C)cc(C)c3)[nH]2)n1	–	–	–	1.6 to 250 (≈ 4.86 to 759 µM)	1.6 to 250 (≈ 4.86 to 759 µM)	–
CSc1nc(Cl)cc(Sc2nnc(-c3cccc(F)c3)[nH]2)n1	–	–	–	1.6 to 250 (≈ 4.52 to 707 µM)	1.6 to 250 (≈ 4.52 to 707 µM)	–
